We go through two compounds from patent US10466259B2, “Synthetic antigen compositions for detecting anti-phosphatidylethanolamine antibodies” (Northwestern Univeristy, priority 2015, dated 2019).

The structures appear in SMILES notation. Entries after “also recorded” stand apart in the source; their conditions may differ. Bounds are passed on as bounds.

Holding throughout (type): binding, human
One test has as its system cofactor-independent aPE. The test is described as follows: aPE ELISA, cofactor-independent patient serum (Example 1). The conditions noted are these: representative patient serum, antigen 1 to 400 μg/ml, FIG. 1. On the procedure:
For aPE ELISA assays (ref. 14; herein incorporated by reference in its entirety), microtiter plates (PolySorp, Thermo Fisher, Pittsburgh, USA) were coated with 50 μl of a solution containing various concentrations of egg yolk PE or equal molar amounts of DOPE in ethanol:chloroform (4:1) and dried by evaporation at room temperature (RT) in an extractor shielded from light. Each well was blocked for two hours at RT with 10% BSA in PBS followed by 50 μl of patient serum diluted 1/100 in PBS for one hour at RT. aPEs were assessed by using alkaline phosphatase conjugated polyclonal antibody (Ab) against either human IgG or IgM. The plates were washed three times with PBS after blocking, serum and conjugate incubations. After color development with paranitrophenyl phosphate as substrate, optical density at 405 nm was measured. OD values of pooled normal serum control were subtracted from those of patient serum samples measured with the same PE concentration.
In order to determine the optimal concentration of antigen in aPE ELISA, wells were coated with a series of concentrations of egg yolk PE ranging from 1 to 400 μg/ml aPEs or normal control serum were assessed with alkaline phosphatase conjugated polyclonal Ab to either IgG or IgM. […]

Test [1] has as its system cofactor-independent aPE IgM. The test is described as follows: ELISA of synthetic PE compositions, cofactor-independent aPE IgM. The conditions noted are these: FIG. 9. On the procedure:
FIGS. 12A-B. Determination of PE coating amount and its impact on ELISA. A, B. determination of PE coating Amount. The indicated amount of PE was coated on 96 well plate and Elisa was performed. The relative OD405 value was deducted the normal serum value. The error bar represents SEM, n=3. A for egg PE, B for 20% 18:0 PE, 13.3% 18:1 PE, 39.9% 20:4 PE, and 26.6% 22:6 PE.
FIG. 13. A head-to-head comparison on the ELISA performance between egg PE and the synthetic formulation. The ELISA place was coated with 0.5 μg of egg PE or the kit formulation (20% 18:0 PE, 13.3% 18:1 PE, 39.9% 20:4 PE, and 26.6% 22:6 PE). OD405 was measured after ELISA and the relative OD value was subtracted from the normal human serum value. The net value was the mean of triplicates. A total 11 patient serum samples were tested for experiments.
Egg PE is currently the most widely used source of PE in ELISA tests for aPE.

Test [2] has as its system cofactor-independent aPE IgG. Description: ELISA of synthetic PE compositions, cofactor-independent aPE IgG. The method, then: FIG. 15. Head-to-head comparison between egg PE and synthetic 20:4 PE on the ELISA for cofactor-independent aPE IgG reactivity. The 96 well plate was coated with 1 mg of indicated PE per well, OD405 was measured after ELISA and the relative OD value was determined by subtracting the OD value of normal human serum from the patient sample. […] A total 14 patient serums were tested.
On the technique in general: ELISA stands for enzyme-linked immunosorbent assay.

Test [3] has as its system cofactor-independent IgG aPE. Description: ELISA with affinity-purified total IgG, cofactor-independent sample. The conditions noted are these: FIG. 18, total IgG 200 μg/ml. On the procedure: (§1) FIG. 18. aPE reactivity to egg PE, 20:4 PE and 18:1 PE using affinity-purified total IgG from a cofactor-dependent and a cofactor-independent IgG aPE patient plasma. For each ELISA test, the total IgG was used at a concentration of 200 μg/ml. […] The values are means of triplicates.
(§2) To minimize uncertainties caused by potential confounding factors in the serum and variations in immunoglobulin contents, the total IgG was isolated from representative aPE patient serum samples and was used to validate ELISA assays.
(§3) Microplates were coated using Egg PE, 20:4 PE or 18:1 PE for IgG aPE ELISA for normal human serum, a representative cofactor-dependent and cofactor-independent patient serum.

Test [4] relates to cofactor-dependent IgG aPE. Description: ELISA with affinity-purified total IgG, cofactor-dependent samples. The method, then:
as §1
The values are means of triplicates.
as §2, §3

Turning to `CCCCCCCC/C=C\CCCCCCCC(=O)OC[C@H](COP(=O)(O)OCCN)OC(=O)CCCCCCC/C=C\CCCCCCCC` [DOPE, dioleoyl PE], the “antigen concentration at which aPE reactivities peaked” value in the test on cofactor-independent aPE is “around 5 μg/ml”.
In the case of `CCCCC/C=C\C/C=C\C/C=C\C/C=C\CCCC(=O)OC[C@H](COP(=O)(O)OCCN)OC(=O)CCC/C=C\C/C=C\C/C=C\C/C=C\CCCCC` [20:4 PE, arachidonic PE], the “ELISA performance compared with egg PE” value in test [1] (0.5 mg PE per well, relative OD405 normalized with egg PE, serum from patient J083006H, n=3) was “out-perform egg PE”. Besides, the “ELISA performance compared with other single PE species” value in test [1] (unsaturated versus saturated, longer versus shorter fatty acid tails) is “better performance”. In test [2] (FIG. 14, representative patient serum sample, 1 mg PE per well), the “OD value relative to egg PE” value is given as roughly 14 folds. Also, in test [2] (FIG. 14, representative patient serum sample, 1 mg PE per well, n=3), the “relative ELISA performance against egg PE” value was “highest OD value”. In addition, the “head-to-head ELISA performance versus egg PE” value in test [2] (FIG. 15, 14 patient serum samples, P=0.012) is on record as “out-performed egg PE significantly”. In test [2] (FIG. 15, some samples), the “improvement of aPE reactivity versus egg PE” value was no less than 500%. The “aPE reactivity of purified total IgG” value in test [3] was “significant reactivity; also recorded: prefer”; in test [4] (FIG. 18, cofactor-dependent sample, total IgG 200 μg/ml), “not”; in test [4] (FIG. 19, two other cofactor-dependent aPE samples), “not”.
